The source of these data is patent publication US11492359B2, “Near-infrared nerve-sparing fluorophores” (OREGON HEALTH & SCIENCE UNIVERSITY, priority 2018, dated 2022).

The data set is described as follows: UV-Vis absorption and fluorescence spectroscopy of the Oxazine library. The data set is classed as physicochemical. Conditions: for Extinction coefficient: Beer's Law plots; for Quantum yield: relative, references Oxazine 1, Oxazine 170, Rhodamine 101. The procedure:
All reagents were purchased from Sigma Aldrich, Fisher Scientific, TCI, or Ark Pharm. Unless otherwise indicated, all commercially available starting materials were used directly without further purification. Analytical thin layer chromatography (TLC) was performed on Millipore ready-to-use plates with silica gel 60 (F254, 32-63 μm). Flash chromatography was performed on Sorbent Technologies silica gel for column chromatography or on a Biotage Isolera Flash System using SNAP Ultra cartridges. High-resolution mass spectra (HRMS) were measured on a ThermoElectron LTQ-Orbitrap high resolution mass spectrometer with a dedicated Accela HPLC system, or an Agilent 6244 time-of-flight LCMS with diode array detector VL+. LCMS and Purity Characterization Mass-to-charge ratio and purity of the Oxazine compounds were characterized on an Agilent 6244 time-of-flight tandem liquid chromatography mass spectroscopy (LCMS) with diode array detector VL+. Sample (10 μL) was injected into a C18 column (Poroshell 120, 4.6×50 mm, 2.7 micron), and eluted with a solvent system of A (H2O, 0.1% FA) and B (MeCN, 01.% FA) at 0.4 mL/min, from A/B=90/10 to 5/95 over 10 min, maintained at A/B=5/95 for additional 5 min. Ions were detected in positive ion mode by setting the capillary voltage at 4 kV and gas temperature at 350° C. Purity was calculated through area under the curve analysis of the absorbance at 254 nm. UV-Vis Absorption and Fluorescence Spectroscopy. UV-Vis spectra were collected with a Cary 50 UV-Vis spectrophotometer at room temperature, using a 1-cm quartz cuvette. Fluorescence spectra were collected on a Cary Eclipse fluorescence spectrophotometer (Agilent Technologies). All absorbance spectra were reference corrected. Extinction coefficient was calculated from Beer's Law plots of absorbance versus concentration. Fluorescence spectra were corrected for the wavelength dependent response of the R928 photomultiplier tube using a manufacturer generated correction file. Relative quantum yields are reported as the average of multiple measurements using multiple references, including Oxazine 1, Oxazine 170, and Rhodamine 101. Physicochemical Property Calculation. Physicochemical partition coefficients (Log D) values at pH 7.4, number of hydrogen bond donors and acceptors, polar surface area, and the number of rotatable bonds were calculated using Marvin and JChem calculator plugins (ChemAxon, Budapest, Hungary). Nerve-Specificity Screening using Direct/Topical Administration Each compound was screened for its tissue-specificity using a previously published direct/topical administration strategy in murine brachial plexus and sciatic nerves.^1 Each compound from the Oxazine library was formulated in the previously utilized co-solvent formulation (10% DMSO, 5% Kolliphor, 65% serum and 20% phosphate buffered saline) at 125 μM. 100 μL of the formulated Oxazine were incubated on the exposed brachial plexus or sciatic nerve for 5 minutes. The fluorophore containing solution was removed and the area was irrigated with saline 18 times to remove any unbound fluorophore. Co-registered fluorescence and color images were collected of each stained area 30 minutes after Oxazine direct/topical administration using a custom built macroscopic imaging system with 620/60 nm excitation and 700/75 nm bandpass emission filters. Custom written MatLab code was used to analyze the tissue specific fluorescence where regions of interest were selected on the nerve, muscle and adipose tissue using the white light images. These regions of interest were then analyzed on the co-registered matched fluorescence images permitting assessment of the nerve to muscle and nerve to adipose ratios in blinded manner. […]

For the compound `CC[N+](CC)=c1ccc2nc3ccc(N4CCCCC4)cc3oc-2c1` [LGW03-18, N-ethyl-N-(7-(piperidin-1-yl)-3H-phenoxazin-3-ylidene)ethanaminium], the “Max Abs” value came out at 661 nm, the “Max Em” value is 680 nm, the “Max Ex” value turned out to be 665 nm and the Extinction coefficient amounted to 66206 M⁻¹ cm⁻¹. Besides, the Quantum yield is 3.49%.
For `CC/N=c1/cc2oc3cc(N(C)C)ccc3nc-2cc1C` [LGW04-36, (Z)—N-(7-(dimethylamino)-2-methyl-3H-phenoxazin-3-ylidene)ethanaminium], in that order: 636 nm, 657 nm, 635 nm, 60819 M⁻¹ cm⁻¹ and 8.15%.
`CC/N=c1/cc2oc3cc4c(cc3nc-2cc1C)CCN4CC` [LGW05-76, (Z)—N-(1-ethyl-7-methyl-2,3-dihydropyrrolo[3,2-b]phenoxazin-8(1H)-ylidene)ethanaminium]: the “Max Abs” value was determined as 628 nm, the “Max Em” value is listed as 650 nm, the “Max Ex” value is reported as 630 nm and the Extinction coefficient stood at 45449 M⁻¹ cm⁻¹. For the same compound, the Quantum yield is 32.68%.
Turning to `CC/N=c1/cc2oc3cc(NC)c(C)cc3nc-2cc1C` [LGW04-81, (Z)—N-(2,8-dimethyl-7-(methylamino)-3H-phenoxazin-3-ylidene)ethanaminium], the “Max Abs” value turned out to be 616 nm, the “Max Em” value was determined as 634 nm, the “Max Ex” value came to 615 nm and the Extinction coefficient stood at 52291 M⁻¹ cm⁻¹. Further, the Quantum yield is 39.47%.
Consider `c1cc2nc3ccc(=[N+]4CCCCC4)cc-3oc2cc1N1CCCCC1` [LGW04-91, 1-(7-(piperidin-1-yl)-3H-phenoxazin-3-ylidene)piperidin-1-ium], for which the “Max Abs” value is on record as 663 nm, the “Max Em” value came out at 689 nm, the “Max Ex” value is recorded as 665 nm and the Extinction coefficient is 85597 M⁻¹ cm⁻¹. This compound registered a Quantum yield of 2.77%.
Regarding `c1cc2nc3ccc(=[N+]4CCCC4)cc-3oc2cc1N1CCCC1` [LGW03-31, 1-(7-(pyrrolidin-1-yl)-3H-phenoxazin-3-ylidene)pyrrolidin-1-ium], the “Max Abs” value was determined as 655 nm, the “Max Em” value came out at 674 nm, the “Max Ex” value was 655 nm and the Extinction coefficient stood at 48226 M⁻¹ cm⁻¹. The Quantum yield is listed as 15.78%.
In the case of `CCNc1cc2oc3cc(=[N+](CC)CC)ccc-3nc2cc1F` [LGW05-82, N-ethyl-N-(7-(ethylamino)-8-fluoro-3H-phenoxazin-3-ylidene)ethanaminium], the “Max Abs” value was determined as 636 nm, the “Max Em” value was determined as 661 nm, the “Max Ex” value was determined as 640 nm and the Extinction coefficient turned out to be 36833 M⁻¹ cm⁻¹. This compound registered a Quantum yield of 2.70%.
For `CCN(CC)c1ccc2nc3ccc(=[N+](CC)CC)cc-3oc2c1.[O-][Cl+3]([O-])([O-])[O-]` [OX-1, reference compound], in that order: 655 nm, 671 nm, 660 nm, 93211 M⁻¹ cm⁻¹ and 7.40%.
For `CC/N=c1/cc2oc3cc(NCC)c(Cl)cc3nc-2cc1C` [LGW05-42, (Z)—N-(8-chloro-7-(ethylamino)-2-methyl-3H-phenoxazin-3-ylidene)ethanaminium], in that order: 612 nm, 636 nm, 615 nm, 41527 M⁻¹ cm⁻¹ and 37.22%.
Take `CC[N+](CC)=c1ccc2nc3cc4c(cc3oc-2c1)NCCC4` [LGW03-13, N-ethyl-N-(1,2,3,4-tetrahydro-9H-pyrido[3,2-b]phenoxazin-9-ylidene)ethanaminium]: the “Max Abs” value is given as 641 nm, the “Max Em” value came out at 659 nm, the “Max Ex” value came out at 645 nm and the Extinction coefficient amounted to 64045 M⁻¹ cm⁻¹. The same compound had a Quantum yield of 6.49%.
The like results for `CC/N=c1/cc2oc3c(C)c(NCC)ccc3nc-2cc1C` [LGW02-58, (Z)—N-(7-(ethylamino)-2,6-dimethyl-3H-phenoxazin-3-ylidene)ethanaminium] were, in that order, 620 nm, 635 nm, 620 nm, 42685 M⁻¹ cm⁻¹ and 25.26%.
The like results for `c1c2c(cc3c1N=c1cc4c(cc1O3)=NCCC4)NCCC2` [LGW03-32, 3,4,8,9,10,11-hexahydro-2H-dipyrido[3,2-b:2′,3′-i]phenoxazin-1-ium] were, in that order, 631 nm, 644 nm, 630 nm, 45650 M⁻¹ cm⁻¹ and 29.92%.
As for `CC/N=c1/cc2oc3cc(NCC)ccc3nc-2cc1C` [LGW01-18, (Z)—N-(7-(ethylamino)-2-methyl-3H-phenoxazin-3-ylidene)ethanaminium], the “Max Abs” value was determined as 617 nm, the “Max Em” value turned out to be 636 nm, the “Max Ex” value stood at 620 nm and the Extinction coefficient was determined as 60731 M⁻¹ cm⁻¹. The same compound showed a Quantum yield of 32.91%.
The like results for `c1c2c(cc3c1Oc1cc4c(cc1=N3)OCCN=4)OCCN2` [LGW03-65, 3,8,9,10-tetrahydro-2H-bis([1,4]oxazino)[2,3-b:3′,2′-i]phenoxazin-4-ium] were, in that order, 629 nm, 643 nm, 630 nm, 28067 M⁻¹ cm⁻¹ and 27.39%.
The like results for `C/N=c1/cc2oc3cc(NC)c(C)cc3nc-2cc1C` [LGW01-61, (Z)—N-(2,8-dimethyl-7-(methylamino)-3H-phenoxazin-3-ylidene)methanaminium] were, in that order, 612 nm, 631 nm, 610 nm, 21783 M⁻¹ cm⁻¹ and 40.27%.
`CC/N=c1/cc2oc3cc(NCC)c(Cl)cc3nc-2cc1Cl` [LGW05-39, (Z)—N-(2,8-dichloro-7-(ethylamino)-3H-phenoxazin-3-ylidene)ethanaminium]: the “Max Abs” value came to 620 nm, the “Max Em” value came out at 638 nm, the “Max Ex” value was 620 nm and the Extinction coefficient turned out to be 18223 M⁻¹ cm⁻¹. The Quantum yield came out at 34.29%.
Consider `CC[N+](CC)=c1ccc2nc3cc4c(cc3oc-2c1)NCC4` [LGW03-88, N-(2,3-dihydropyrrolo[3,2-b]phenoxazin-8(1H)-ylidene)-N-ethylethanaminium], for which the “Max Abs” value came to 631 nm, the “Max Em” value was determined as 659 nm, the “Max Ex” value is 640 nm and the Extinction coefficient is 59737 M⁻¹ cm⁻¹. The compound also had a Quantum yield of 6.22%.
Consider `CCNc1ccc2nc3ccc(=[N+](CC)CC)cc-3oc2c1C` [LGW02-60, N-ethyl-N-(7-(ethylamino)-6-methyl-3H-phenoxazin-3-ylidene)ethanaminium], for which the “Max Abs” value was found to be 645 nm, the “Max Em” value was 661 nm, the “Max Ex” value is given as 650 nm and the Extinction coefficient amounted to 65369 M⁻¹ cm⁻¹. In addition, the Quantum yield turned out to be 8.98%.
For `CC/N=c1/cc2oc3cc4c(cc3nc-2cc1C)CCCN4` [LGW03-12, (Z)—N-(8-methyl-1,2,3,4-tetrahydro-9H-pyrido[3,2-b]phenoxazin-9-ylidene)ethanaminium], in that order: 624 nm, 638 nm, 630 nm, 40041 M⁻¹ cm⁻¹ and 27.22%.
